According to the supplement of paper PMC11061612:

Legend:
Test in all cases: combination Emax (second highest fraction inhibited in the dose matrix, 72 h); higher = more inhibition; extreme values may be limits of the assay
[1] = tested on: SK-HEP-1 (Hepatocellular Carcinoma)
In short: (§1)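 Cell lines grown in DMEM/F12 or RPMI with 10% FBS were plated in 1536-well plates and held 24 hours at 37°C, 5% CO2 before 72 hours of exposure to two-drug dose matrices, with DMSO typically at 0.2%. CellTiter-Glo 2.0 luminescence gave viability, which was converted to inhibition. Vehicle wells were set to 0 and blank wells to 1. Combination Emax is the second-highest inhibition in the matrix, and Bliss excess is the observed combination effect minus the expected EA + EB − EA·EB, where EA and EB are the single-agent effects.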

[2] = tested on: SW620 (Colorectal Carcinoma)
In short: as §1

[3] = tested on: HCC1395 (Breast Carcinoma)
In short: as §1

[4] = tested on: NCI-H441 (Lung Adenocarcinoma)
In short: as §1

[5] = tested on: MHH-ES-1 (Ewing's Sarcoma)
In short: as §1

[6] = tested on: CGTH-W-1 (Thyroid Gland Carcinoma)
In short: as §1

[7] = tested on: LU-165 (Small Cell Lung Carcinoma)
In short: as §1

[8] = tested on: MDA-MB-436 (Breast Carcinoma)
In short: as §1

[9] = tested on: EB2 (Burkitt's Lymphoma)
In short: as §1

[10] = tested on: A2780 (Ovarian Carcinoma)
In short: as §1

[11] = tested on: HCC70 (Breast Carcinoma)
In short: as §1

[12] = tested on: JHH-2 (Hepatocellular Carcinoma)
In short: as §1

Structure (SMILES) | combination Emax [1] | combination Emax [2] | combination Emax [3] | combination Emax [4] | combination Emax [5] | combination Emax [6] | combination Emax [7] | combination Emax [8] | combination Emax [9] | combination Emax [10] | combination Emax [11] | combination Emax [12]
C=CCn1c(=O)c2cnc(Nc3ccc(N4CCN(C)CC4)cc3)nc2n1-c1cccc(C(C)(C)O)n1 [AZD1775] + CCc1c2c(nc3ccc(O)cc13)-c1cc3c(c(=O)n1C2)COC(=O)[C@]3(O)CC [SN-38] (first compound max 1 µM, partner max 0.3 µM) | 0.622 | 0.949 | 0.733 | 0.685 | 0.985 | 0.703 | 0.588 | 0.591 | 0.941 | 0.94 | 0.537 | 0.76
C=CCn1c(=O)c2cnc(Nc3ccc(N4CCN(C)CC4)cc3)nc2n1-c1cccc(C(C)(C)O)n1 [AZD1775] + Nc1ccn([C@@H]2O[C@H](CO)[C@@H](O)C2(F)F)c(=O)n1 [Gemcitabine] (first compound max 1 µM, partner max 0.3 µM) | 0.514 | 0.9 | 0.515 | 0.55 | 0.983 | 0.761 | 0.508 | 0.608 | 0.942 | 0.963 | 0.513 | 0.735
CN(CCO)CC[C@H](CSc1ccccc1)Nc1ccc(S(=O)(=O)NC(=O)c2ccc(N3CCC([C@@H](O)c4ccccc4-c4ccc(Cl)cc4)CC3)cc2)cc1S(=O)(=O)C(F)(F)F [AZD4320] + CS(=O)(=O)CCNCc1ccc(-c2ccc3ncnc(Nc4ccc(OCc5cccc(F)c5)c(Cl)c4)c3c2)o1 [Lapatinib] (first compound max 1 µM, 7x7, partner max 10 µM) | 0.909 | 0.741 | 0.96 | 0.479 | 0.973 | 0.273 | 0.943 | 0.256 | 0.293 | 0.492 | 0.93 | 0.778
Cc1c2c(nn1C)CSCc1cc(n(C)n1)CSc1cc(c3ccccc3c1)OCCCc1c(C(=O)O)n(C)c3c-2c(Cl)ccc13 [AZD5991] + CC(=O)O[C@H]1C(=O)[C@@]2(C)[C@H]([C@H](OC(=O)c3ccccc3)[C@]3(O)C[C@H](OC(=O)[C@H](O)[C@@H](NC(=O)c4ccccc4)c4ccccc4)C(C)=C1C3(C)C)[C@]1(OC(C)=O)CO[C@@H]1C[C@@H]2O [Paclitaxel] (first compound max 1 µM, 7x7, partner max 3 µM) | 0.857 | 0.788 | 0.933 | 0.401 | 0.965 | 0.59 | 0.36 | 0.391 | 0.666 | 1 | 0.973 | 0.783
Cc1c2c(nn1C)CSCc1cc(n(C)n1)CSc1cc(c3ccccc3c1)OCCCc1c(C(=O)O)n(C)c3c-2c(Cl)ccc13 [AZD5991] + CS(=O)(=O)CCNCc1ccc(-c2ccc3ncnc(Nc4ccc(OCc5cccc(F)c5)c(Cl)c4)c3c2)o1 [Lapatinib] (first compound max 1 µM, 7x7, partner max 10 µM) | 0.632 | 0.207 | 0.94 | 0.229 | 0.58 | 0.221 | 0.225 | 0.274 | 0.283 | 0.933 | 0.995 | 0.446
Cc1c2c(nn1C)CSCc1cc(n(C)n1)CSc1cc(c3ccccc3c1)OCCCc1c(C(=O)O)n(C)c3c-2c(Cl)ccc13 [AZD5991] + Nc1ccn([C@@H]2O[C@H](CO)[C@@H](O)C2(F)F)c(=O)n1 [Gemcitabine] (first compound max 1 µM, 7x7, partner max 0.3 µM) | 0.535 | 0.657 |  | 0.519 | 0.935 | 0.688 | 0.423 | 0.56 | 0.923 | 1 | 0.937 | 0.483
C[C@@H]1COCCN1c1cc(C2([S@](C)(=N)=O)CC2)nc(-c2ccnc3[nH]ccc23)n1 [AZD6738] + C1CC(C1)(C(=O)[O-])C(=O)[O-].N.N.[Pt+2] [Carboplatin] (first compound max 10 µM, 7x7, partner max 10 µM) | 0.166 | 0.478 | 0.586 | 0.394 | 0.51 | 0.302 | 0.41 | 0.266 | 0.76 | 0.81 | 0.763 | 0.507
C[C@@H]1COCCN1c1cc(C2([S@](C)(=N)=O)CC2)nc(-c2ccnc3[nH]ccc23)n1 [AZD6738] + Nc1ccn([C@@H]2O[C@H](CO)[C@@H](O)C2(F)F)c(=O)n1 [Gemcitabine] (first compound max 10 µM, 7x7, partner max 0.3 µM) | 0.645 | 0.895 | 0.693 | 0.568 | 0.995 | 0.947 | 0.551 | 0.621 | 0.942 | 0.95 | 0.826 | 0.716
C[C@@H](Nc1cc(F)cc(F)c1)c1cc(C(=O)N(C)C)cc2c(=O)cc(N3CCOCC3)oc12 [AZD8186] + C1CN(CCC1(C(=O)N[C@@H](CCO)C2=CC=C(C=C2)Cl)N)C3=NC=NC4=C3C=CN4 [AZD5363] (first compound max 10 µM, 7x7, partner max 10 µM) | 0.159 | 0.24 | 0.414 | 0.28 | 0.358 | 0.316 | 0.375 | 0.449 | 0.552 | 0.784 | 0.732 | 0.716
